Results on nine compounds are retold here after patent US8648115B2 (priority 2009, dated 2014).

The test system of data set [1] is Phytophthora infestans. Kind of data set: microbe, parasite or virus in culture. The data set is classed as cell-based.
Data set [2] concerns Phytophthora infestans. The data set is described as follows: microbe, parasite or virus in culture. The format is cell-based. The conditions noted are these: for IC50: Phytophthora infestans, read-out: Phytophtora infestans (mycelial growth) IC 50.
Data set [3] concerns Phytophthora infestans. The format is cell-based. The conditions noted are these: lower concentrations (1-100 μM drops); three-week old mycelium; 24 h.
The subject of data set [4] is Colletotrichum coccodes. The data set is described as follows: Colletotrichum coccodes mycelial growth bioassay (OD590). The format is cell-based. On the procedure: FIG. 6: Inhibitory effect of (E)-4-oxohexadec-2-enoic acid on the mycelial growth of Colletotrichum coccodes. One-day old mycelium in 96-well plates was inoculated with different (E)-4-oxohexadec-2-enoic acid concentrations. The growth of C. coccodes was determined by measuring the OD590. The experiment was repeated twice, with identical results.
C. coccodes (CBS369.75) was grown for five days in 50 ml of liquid soybean medium in the dark at 18° C. on a rotary shaker. In order to isolate spores, all of the culture was centrifuged for 5 min at 2100 g and 4° C. The supernatant, which contained the spores, was recentrifuged (10 min, 6500 g, 4° C.). After the supernatant had been decantered off, the pelleted spores were washed carefully in deionized water, centrifuged as above and finally the spore concentration was adjusted to 1×10^5 spores/ml in soybean medium. To carry out the biotest, 200 μl of this spore solution were pipetted into each well of a 96-well plate (Nunc A/S, Denmark). The plates were incubated in an incubator for 24 h at 17° C. in the dark to allow germination. Then, test concentrations of (E)-4-oxohexadec-2-enoic acid were pipetted in as described above, with final concentrations of from 0.01 μM to 100 μM and 2% (v/v) ethanol. The plates were returned into the incubator and the increase in fungal biomass was determined by daily OD590 measurements.
To determine whether (E)-4-oxohexadec-2-enoic acid also has an inhibitory effect on the ascomycete c. coccodes, the causative organism of, inter alia, black dot disease of potato, a multiwell bioassay was set up. The growth of the fungus in liquid medium was determined on the basis of the measurement of the optical density (OD590). A medium containing soya was used for this purpose. One-day old mycelium was inoculated together with various concentrations of (E)-4-oxohexadec-2-enoic acid, and the growth of C. coccodes was determined every 24 h. […] Increasing concentrations reduced the fungal growth even further.

Data set [5] deals with Phytophthora infestans. The data set is classed as in vivo. The conditions noted are these: 3 days after inoculation.
Data set [6] deals with Potato plants (Solanum tuberosum L. cv. Désirée). The conditions noted are these: in vivo.
Where [7] appears, read: Phytophthora infestans, read-out: Phytophthora infestans (spore germination) IC 50, spore germination.
Where [8] appears, read: read-out: Phytophthora infestans (spore germination) IC 50, spore germination.

“And” between values parts separate entries of the source, which are not always exact repeats. Identical values can stand only once. Like-named read-outs stand apart in the source and are kept apart here. Bounds are passed on as bounds.

For the compound `CCCCCCCCCCCCC(=O)/C=C/C(=O)O` [(E)-4-oxohexadec-2-enoic acid], the Spore germination result in data set [1] (10 nM, 24 h) is “reduced”; in data set [1] (3.7 μM, 24 h) it was “prevented completely”. Further, the “Reduction of spore germination compared with the ethanol control” value in data set [1] (100 nM, 24 h) is on record as “more than 50%”. In data set [1] (1 μM, 24 h), the Spores germinated was below 10%. In data set [1] (100 μM), the Spore lysis result is on record as “spore lysis was observed”. In addition, the “Length of the germination tubes” value in data set [1] (increasing concentrations) is given as “had an effect on the length of the germination tubes”. In addition, the “Mycelial growth (GFP fluorescence)” value in data set [2] (1 mM, one-day old mycelium) was “growth was inhibited”. Besides, the “Viability of mature mycelium” value in data set [3] is on record as “clear negative effect on mycelia viability”. Moreover, the “Growth of C. coccodes” value in data set [4] (0.01 μM) is on record as “significant inhibitory effect”; in data set [4] (100 μM), “complete inhibition”. Moreover, the “Inhibition of growth of C. coccodes compared with the ethanol control” value in data set [4] (1 μM) is given as “more than half”.
Turning to `O=C(O)/C=C/C(=O)CCCCCCCCCCF`, the IC50 in data set [1] (setting [7]) was 70 nM and 0.018 µg/mL; in data set [2] it was 80 µM and 20.7 µg/mL.
Consider `CCCCCC(=O)/C=C/C(=O)O` [drawing 6], for which the IC50 in data set [1] (setting [7]) was 14 nM.
For `CCCCCCCCCCCCCCCCCCC(=O)/C=C/C(=O)O`, in data set [1] (setting [7]), the IC50 is 100 nM and 0.035 µg/mL.
The same measure, in the same setting: then `CCCC(=O)/C=C/C(=O)O`, with 14 nM and 0.0019 µg/mL.
As for `CCCCCC(=O)/C=C/C(=O)O` [drawing 5], the IC50 was determined as 0.002 µg/mL in data set [1] (setting [7]) and 12 nM in data set [1] (setting [8]).
The matching figures for `CCCCCCCCCCCCC(=O)/C=C/C(=O)[O-].[K+]` [drawing 9]: 0.018 µg/mL and 60 nM.
In the case of `CCCCCCCCCCCCC(=O)/C=C/C(=O)[O-].[Na+]` [sodium (E)-4-oxohexadec-2-enoate, Sodium (E)-4-oxohexadec-2-enoate], the figures for the “Inhibition of infection with P. infestans compared with untreated control plants” value in data set [5] (10 μM spray 2 h before inoculation) and in data set [5] (100 μM spray 2 h before inoculation) were 80% and 95%, respectively. For the same compound, the “Toxic effects on the leaves” value in data set [6] was “no toxic effects on the leaves”.
`CCCCCCCCCCCCC(=O)/C=C/C(=O)O` [drawing 8]: the IC50 in data set [1] (setting [7]) was 70 nM and 0.0018 µg/mL; in data set [2], 450 µM and 121 µg/mL.
